Experimental data published in PMC6304572, “Simultaneous Evaluation of the Influence of Panax ginseng on the Pharmacokinetics of Three Diester Alkaloids after Oral Administration of Aconiti Lateralis Radix in Rats Using UHPLC/QQQ-MS/MS” (Evidence-based Complementary and Alternative Medicine : eCAM, 2018).

Assays:
[1] = Stability of the three alkaloids in rat plasma QC samples (4°C, room temperature, freeze-thaw); assay type: in vitro ADME; details: for Freeze-thaw Accuracy: freeze-thaw three times; for Room temperature stability (24 h) Accuracy: room temperature (about 25°C)
Experimental: Plasma from rats without any processing was used to evaluate the detection methods. 0.1, 0.25, 0.5, 1, 2.5, 5, 10 ng/ml were chosen to calculate standards curve. 0.1, 0.4, 4, 8 ng/mL were selected as the QC sample (n = 4) with repeated operations used to calculate accuracy and precision of the detection method. The data was acquired after keeping the samples at either +4°C 24 hours or room temperature (about 25°C) for 24 hours as well as using freeze-thaw methods (three times) to evaluate stability. Recovery of the developed methods was calculated by the following formula: recovery = measured value/ theoretical value × 100%.

[2] = Pharmacokinetics of three diester alkaloids in rat plasma after oral Aconiti Lateralis Radix extract, with or without 7-day P. ginseng pretreatment; assay type: in vivo, Sprague-Dawley rats; details: oral Aconiti Lateralis Radix extract 1 g/kg on 8th day
Experimental: Rats were randomly divided into 4 groups: control group, P. ginseng (low, middle, and high) group. 7 days of oral administration of P. ginseng extract was administered at a dosage of 0.1, 1, 10 g/kg for P. ginseng group (low, middle, and high), respectively, once daily. Distilled water was administered at a dosage of 2 ml/kg for control group, simultaneously. On the 8th day, Aconiti Lateralis Radix extracts (1 g/kg) were orally administered to all groups. 0.5 ml plasma samples were collected in 1.5 ml centrifuge tubes (containing heparin sodium) at 10, 30, 60, 90, 120, 240, 480, 720, 1440, and 2880 min. All plasma samples were centrifuged for 15 min at 4000g. The supernatant was separated to another 1.5 ml centrifuge tubes and stored at -20°C.
Liquid-liquid extraction (ethyl acetate) and protein precipitation (50% acetonitrile plus 50% methanol) methods were compared to determine the best method to prepare the plasma sample. Liquid-liquid extraction method was chosen, due to reproducibly high recovery rates. The details of the extraction are as follows: 10 μL carbamazepine (IS) was added to 90 μL plasma, spiked with 400 μL ethyl acetate and the mixture vortexed for 15 seconds. After centrifugation at 12,000g for 10 min, the supernatant was transferred to another 1.5 mL centrifuge tube and dried under a stream of nitrogen at 37°C. The residue was redissolved in 100 μL 50% acetonitrile and centrifuged at 12,000g for 10 min and filtered through a 0.22 μm Micropore membrane. A 5 μL volume of supernatant was injected into LC-MS system for analysis.
Xevo TQ-S (Waters, USA) was utilized for the analysis of all biological samples. Chromatographic separation was conducted on Waters ACQUITY UPLC HSS T3 1.8 μm column (2.1 mm × 100 mm). Column temperature was 45°C and the flow rate was 0.5ml/min. Room temperature was 20 ± 2°C. Phase A consisted of water and 0.1% formic acid (v/v), and phase B consisted of acetonitrile (ACN) 0.1% formic acid (v/v). Column separation was performed by gradient elution: 0-0.5 min, 10% B; 1-2 min, 90% B; 4 min, 10% B.
Electrospray ionization (ESI) and positive ion V mode were used to determine the samples. The main parameters for mass spectrum were set as follows: capillary voltage: 3.5 kv; sample cone: 60 v; source offset: 50 v; source temperature: 150°C; desolvation temperature: 350°C; cone gas flow: 150 L/h; desolvation gas flow: 650 L/h; injection volume: 5 μL.
The data was acquired and analyzed by XEVO-QT-S (Waters). The pharmacokinetic parameters were analyzed by DAS pharmacokinetic program (Version 2.0). SAS statistical software was used to determine the difference between each group. All data was presented as mean ± SD, and P<0.05 was considered statistically significant.

[3] = P. ginseng-high (10 g/kg oral, 7 days)
[4] = P. ginseng-low (0.1 g/kg oral, 7 days)
[5] = P. ginseng-middle (1 g/kg oral, 7 days)
[6] = control group (distilled water 7 days)

COC[C@]12CN(C)[C@@H]3[C@@H]4[C@H](OC)[C@H]1[C@@]3([C@@H](OC)C[C@H]2O)[C@@H]1C[C@@]2(O)[C@H](OC(=O)c3ccccc3)[C@@H]1[C@]4(OC(C)=O)[C@@H](O)[C@@H]2OC [Mesaconitine]
4°C temperature stability (24 h) Accuracy ([1]; QC conc. 0.40 ng/mL): 100.28 ± 8.73% | Freeze-thaw Accuracy ([1]; QC conc. 0.40 ng/mL): 95.09 ± 7.31% | Room temperature stability (24 h) Accuracy ([1]; QC conc. 0.40 ng/mL): 96.34 ± 6.95% | 4°C temperature stability (24 h) Accuracy ([1]; QC conc. 4.00 ng/mL): 97.02 ± 9.18% | Freeze-thaw Accuracy ([1]; QC conc. 4.00 ng/mL): 100.37 ± 8.92% | Room temperature stability (24 h) Accuracy ([1]; QC conc. 4.00 ng/mL): 93.68 ± 2.77% | 4°C temperature stability (24 h) Accuracy ([1]; QC conc. 8.00 ng/mL): 99.43 ± 4.57% | Freeze-thaw Accuracy ([1]; QC conc. 8.00 ng/mL): 99.59 ± 3.35% | Room temperature stability (24 h) Accuracy ([1]; QC conc. 8.00 ng/mL): 100.72 ± 4.78% | AUC(0-t) [2, 3]: 126.07 ± 44.93^∗∗ μg/L∗h | AUC(0-∞) [2, 3]: 138.96 ± 55.36^∗∗ μg/L∗h | CLz/F [2, 3]: 81.37 ± 29.62^∗∗ L/h/Kg | Cmax [2, 3]: 8.94 ± 2.33^∗ μg/L | Tmax [2, 3]: 2.20 ± 1.98 h | Vz/F [2, 3]: 1395.19 ± 472.75^∗∗ L/kg | t1/2z [2, 3]: 12.56 ± 4.48 h | AUC(0-t) ([2]; P. ginseng-high (10 g/kg oral, 7 days), listed as mesaconitine): 126.07 ± 44.93 μg/L∗h | AUC(0-t) [2, 4]: 65.53 ± 9.06 μg/L∗h | AUC(0-∞) [2, 4]: 71.36 ± 12.85 μg/L∗h | CLz/F [2, 4]: 144.13 ± 26.77 L/h/kg | Cmax [2, 4]: 4.66 ± 1.03 µg/L | Tmax [2, 4]: 0.89 ± 0.60 h | Vz/F [2, 4]: 2386.47 ± 832.39 L/kg | t1/2z [2, 4]: 12.12 ± 6.11 h | AUC(0-t) [2, 5]: 82.45 ± 18.57^∗ μg/L∗h | AUC(0-∞) [2, 5]: 87.1 ± 21.80^∗ μg/L∗h | CLz/F [2, 5]: 120.75 ± 29.09^∗ L/h/Kg | Cmax [2, 5]: 6.02 ± 1.63 µg/L | Tmax [2, 5]: 1.83 ± 1.21 h | Vz/F [2, 5]: 1745.91 ± 488.37^∗ L/kg | t1/2z [2, 5]: 10.31 ± 3.00 h | AUC(0-t) ([2]; P. ginseng-middle (1 g/kg oral, 7 days), listed as mesaconitine): 82.45 ± 18.57 μg/L∗h | AUC(0-t) [2, 6]: 51.24 ± 21.48 μg/L∗h | AUC(0-∞) [2, 6]: 58.66 ± 27.59 μg/L∗h | CLz/F [2, 6]: 217.47 ± 130.54 L/h/kg | Cmax [2, 6]: 5.48 ± 2.61 µg/L | Tmax [2, 6]: 1.58 ± 1.32 h | Vz/F [2, 6]: 3146.87 ± 1886.84 L/kg | t1/2z [2, 6]: 13.17 ± 10.45 h
